Experimental data from publication PMC5716993, “The interdomain flexible linker of the polypeptide GalNAc transferases dictates their long-range glycosylation preferences” (Nature Communications, 2017).
Entries after “also recorded” stand apart in the source; their conditions may differ.

Target: T1, GalNAc-T4 (Homo sapiens, UniProt Q8N4A0)
T1 construct: amino acid residues 36–578 of the human GalNAc-T4; histidine tag (C); made in house; host or cells: Pichia pastoris SMD1168 (pPICZαA, secreted)
Assay: STD-NMR binding / epitope mapping
Conditions: for STD-NMR signals of the GalNAc sugar protons: GalNAc moiety, UDP, pH 7.4; for STD-NMR signals of the GalNAc sugar protons / STD-NMR signals (peptide recognition): ~880 μM ligand, 13.5 μM GalNAc-T4, 298 K; for STD-NMR signals of the GalNAc sugar protons / STD-NMR signals (peptide recognition) / STD-NMR-derived epitope mapping of GalNAc moiety: in words; for STD-NMR signals (peptide recognition): in presence of UDP and MnCl2 (75 μM each), pH 7.4 uncorrected, TRIS-d11 D2O; for STD-NMR-derived epitope mapping of GalNAc moiety: normalized to the highest STD response
Procedure: All NMR experiments were recorded on a Bruker Avance 600 MHz spectrometer equipped with a triple channel cryoprobe head. The^1H NMR resonances of the peptides 1–3 were completely assigned through standard 2D-TOCSY (30 and 80 ms mixing time) and 2D-NOESY experiments (400 ms mixing time). Solution conditions used for the NMR characterization studies were 1–3 mM (glyco)peptide, 25 mM perdeuterated tris-d11 in 90:10 H2O/D2O, 7.5 mM NaCl, and 1 mM DTT, uncorrected pH 7.4. The assignments were accomplished either at 278 or 298 K. The resonance of 2,2,3,3-tetradeutero-3-trimethylsilylpropionic acid (TSP) was used as a chemical shift reference in the^1H NMR experiments (δ TSP = 0 ppm). Peak lists for the 2D-TOCSY and 2D-NOESY spectra were generated by interactive peak picking using the computer aided resonance assignment (CARA) software.
Samples for STD experiments were prepared in perdeuterated 25 mM TRIS-d11 in deuterated water, 7.5 mM NaCl, and 1 mM DTT, uncorrected pH 7.4. STD-NMR experiments were performed at 298 K in the presence of 75 μM UDP, 75 μM MnCl2 with ~880 μM peptide (or GalNAc-O-Me) and 13.5 μM GalNAc-T4 giving a molar ratio of 65:1 peptide:GalNAc-T4.
The STD-NMR spectra were acquired with 1920 transients in a matrix with 64 k data points in t2 in a spectral window of 12335.53 Hz centered at 2819.65 Hz. An excitation sculpting module with gradients was employed to suppress the water proton signals. Selective saturation of the protein resonances (on resonance spectrum) was performed by irradiating at −1 ppm using a series of Eburp2.1000-shaped 90° pulses (50 ms, 1 ms delay between pulses) for a total saturation time of 2.0 s. For the reference spectrum (off resonance), the samples were irradiated at 100 ppm. Proper control experiments were performed with the ligands in the presence and absence of the protein in order to optimize the frequency for protein saturation (−1 ppm) and to ensure that the ligand signals were not affected. […] This nonspecific saturation was taken into account, by subtraction, when quantifying the STD-NMR data in the presence of the transferase. As well, a blank STD experiment with only the protein was also recorded. The substraction of this protein STD spectrum allowed eliminating the signal background of the protein. In all cases, to accomplish the STD-NMR-derived epitope mapping of each ligand, the STD-NMR total intensities were normalized with respect to the highest STD-NMR response. For Fig. 2b and Supplementary Fig. 1, the STD response of each amino acid corresponds to the average of STD percentages of all amino acid proton resonances that were measured with sufficient accuracy. The signal of the anomeric proton of as well as, the Hα protons of the Ala amino acids of glycopeptides could not be analyzed in the STD-NMR spectra due to their close proximity to the HDO resonance. Proton resonances, from Gly and Pro, appear in the same chemical shift region of the spectrum and were not discriminated.

T1 sequence (Q8N4A0 36-578): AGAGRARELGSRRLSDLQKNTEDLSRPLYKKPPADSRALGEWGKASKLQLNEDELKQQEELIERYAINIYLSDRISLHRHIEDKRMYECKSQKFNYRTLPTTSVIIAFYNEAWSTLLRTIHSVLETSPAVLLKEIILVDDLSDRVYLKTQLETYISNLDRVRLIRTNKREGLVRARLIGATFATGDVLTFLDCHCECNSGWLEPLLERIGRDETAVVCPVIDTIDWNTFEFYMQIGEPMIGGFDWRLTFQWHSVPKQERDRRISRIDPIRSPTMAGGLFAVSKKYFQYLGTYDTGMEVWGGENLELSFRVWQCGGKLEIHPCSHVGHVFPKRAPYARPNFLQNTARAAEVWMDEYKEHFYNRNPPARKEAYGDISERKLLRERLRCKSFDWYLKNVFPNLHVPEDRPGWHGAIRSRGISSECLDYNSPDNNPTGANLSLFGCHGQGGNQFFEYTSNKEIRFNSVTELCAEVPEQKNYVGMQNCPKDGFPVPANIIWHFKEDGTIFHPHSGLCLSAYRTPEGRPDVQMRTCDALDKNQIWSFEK

| Substance | STD-NMR signals of the GalNAc sugar protons (MnCl2) | STD response, GalNAc H3 (H3 of GalNAc moiety, normalized to highest STD response, 298 K, pH 7.4, UDP, MnCl2) | STD response, GalNAc H4 (H4 of GalNAc moiety, normalized to highest STD response, 298 K, pH 7.4, UDP, MnCl2) | STD-NMR signals (peptide recognition) | STD-NMR-derived epitope mapping of GalNAc moiety (298 K, pH 7.4, UDP, MnCl2) |
| --- | --- | --- | --- | --- | --- |
| GAT*GAGAGAGTTPGPG [Peptide 3, monoglycopeptide GAT*…, T* denotes the Thr-O-GalNAc moiety] | unambiguous and more intense STD-NMR signals; also recorded: GalNAc protons receive much more saturation than the amino acid residues | 72% | 92% | relatively weak STD-NMR signals were observed for the Ala and Thr methyl protons; also recorded: no significant STD with the acceptor peptide residues | H2, H4, and the N-acetyl group of the GalNAc moiety have the highest STD-NMR response closely followed by the H3 proton |
| AGAGTTPGPGAGAT*GA [Peptide 2, monoglycopeptide …*GA, T* denotes the Thr-O-GalNAc moiety] | unambiguous and more intense STD-NMR signals; also recorded: GalNAc protons receive much more saturation than the amino acid residues |  |  | relatively weak STD-NMR signals were observed for the Ala and Thr methyl protons | the highest STD response corresponded to the H2 proton of the GalNAc moiety followed by a modest STD of protons H4, H3, and N-acetyl group |
